Test results taken from article PMC10454375, “Cell-Impermeable Inhibitors Confirm That Intracellular Human Transglutaminase 2 Is Responsible for the Transglutaminase-Associated Cancer Phenotype” (International Journal of Molecular Sciences, 2023).
Peptide text beside a SMILES is read from it. * marks the point of attachment. X1 = C=CC(=O)NCCCCC(NC(=O)OCc1ccccc1)C(=O)N1CCN(C(=O)C(CCC(=O)*)NC(=O)c2cccc3ccccc23)CC1

Biological target: T1, TG3a (Homo sapiens, UniProt Q08188)
T1 construct: purchased Zedira GmbH (Darmstadt, Germany)
T1 sequence (Q08188 2-467 limits assumed): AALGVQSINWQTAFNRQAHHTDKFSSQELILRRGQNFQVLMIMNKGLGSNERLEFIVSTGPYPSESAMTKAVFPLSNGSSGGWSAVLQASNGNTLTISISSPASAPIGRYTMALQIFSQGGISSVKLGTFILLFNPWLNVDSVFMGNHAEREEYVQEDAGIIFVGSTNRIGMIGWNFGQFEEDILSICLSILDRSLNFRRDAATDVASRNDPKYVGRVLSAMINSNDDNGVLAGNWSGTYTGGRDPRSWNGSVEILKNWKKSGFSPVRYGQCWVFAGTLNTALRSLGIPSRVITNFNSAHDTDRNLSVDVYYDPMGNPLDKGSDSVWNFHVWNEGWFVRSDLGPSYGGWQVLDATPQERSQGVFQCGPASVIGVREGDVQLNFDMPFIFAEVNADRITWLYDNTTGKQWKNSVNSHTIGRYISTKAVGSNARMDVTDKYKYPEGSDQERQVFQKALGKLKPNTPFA
T1 sequence (Q08188 468-693 partner limits assumed): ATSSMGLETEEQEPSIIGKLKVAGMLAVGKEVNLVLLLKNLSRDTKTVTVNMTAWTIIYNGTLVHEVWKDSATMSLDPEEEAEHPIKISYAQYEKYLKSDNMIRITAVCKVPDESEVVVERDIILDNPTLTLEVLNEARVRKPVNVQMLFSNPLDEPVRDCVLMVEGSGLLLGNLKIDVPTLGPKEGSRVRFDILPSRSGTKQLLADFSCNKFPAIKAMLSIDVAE
Test: TGase isozyme selectivity, TG3a with A101 substrate
Type: biochemical
Conditions: [I]/α identical to that of the TG2 assay
Excerpt: In the development of probes for TGases, isozyme selectivity is always a significant challenge. Since the catalytic machinery of the active sites of all TGases features a conserved Gly-Gln-Cys-Trp-Val sequence, selectivity for one isozyme over the others requires exploitation of slight differences in the protein substrate binding sites. In order to assess the isozyme selectivity of our cell-impermeable inhibitors, TG2 and four other therapeutically relevant TGases (Factor XIII, TG1, TG3, and TG6) were exposed to a concentration of inhibitor representing the same apparent competition with respect to the assay substrate (AL5 [38] or A101 [42, 43]). In other words, both the substrate and inhibitor concentrations were varied so that the [I]/α values were identical. […] This provides confidence that in further applications, these cell-impermeable inhibitors will selectively target TG2 over other transglutaminases.
To monitor the activity of TG3a and TG6, a FRET-quenched substrate A101 (Zedira Gmbh) was used. […] The isopeptidase activity of the respective TGase was then monitored at Ex/Em = 313/418 nm with a BioTek Synergy 4 plate reader at 25 °C. […]

SMILES	inhibition of TG3
C=CC(=O)NCCCCC(NC(=O)OCc1ccccc1)C(=O)N1CCN(C(=O)C(CCC(=O)NCC(=O)NCC(=O)NCC(=O)NC(CC(=O)O)C(=O)NC(CC(=O)O)C(=O)NC(CC(=O)O)C(=O)O)NC(=O)c2cccc3ccccc23)CC1 (centres unmarked) [Compound 18] (X1-GGGDDD-OH; configuration not given here)	no detectable inhibition
C=CC(=O)NCCCCC(NC(=O)OCc1ccccc1)C(=O)N1CCN(C(=O)C(CCC(=O)NCCCCCC(=O)NC(CC(=O)O)C(=O)NC(CC(=O)O)C(=O)NC(CC(=O)O)C(=O)O)NC(=O)c2cccc3ccccc23)CC1 (centres unmarked) [Compound 17]	no detectable inhibition
